Earlier results as cited in patent US10314873B2, “Method of treatment of diseases using hoodia extracts” (HADASIT MEDICAL RESEARCH SERVICES & DEVELOPMENT LTD., priority 2008, dated 2019).

Assays:
[1] = tested on: Liver; conditions: P57 studies
[2] = tested on: hypothalamic neurons; conditions: icv injection of purified P57

C/C=C(\C)C(=O)O[C@@H]1C[C@H]2[C@@H](CC=C3C[C@@H](O[C@H]4C[C@H](OC)[C@H](O[C@H]5C[C@H](OC)[C@H](O[C@@H]6O[C@H](C)[C@@H](O)[C@H](OC)[C@H]6O)[C@@H](C)O5)[C@@H](C)O4)CC[C@@]32C)[C@@]2(O)CC[C@H](C(C)=O)[C@@]12C [P57, (3β,12β,14β)-3-[(O-6-Deoxy-3-O-methyl-β-D-glucopyranosyl-(1→4)-O-2,6-dideoxy-3-O-methyl-β-D-ribohexopyranosyl-(1→4)-2,6-dideoxy-3-O-methyl-β-D-ribo-hexopyranosyl)oxy]-14-hydroxy-12-[[(2E)-2-methyl-1-oxo-2-butenyl]oxy]pregn-5-en-20-one]
reduction of liver ATP content [1]: about 60%
increase of ATP content in hypothalamic neurons [2]: 50-150%
